Laboratory results reported in US20240132431A1, “METHOD FOR ALKYLATING ACIDIC FUNCTIONAL GROUP” (Chugai Seiyaku Kabushiki Kaisha, priority 2021, published 2024).
Values belong to the compound of their own block, whether it stands above or below them.

Biological target: T1, Bcl-2 protein (Recombinant Human Bcl-2 Protein) (Homo sapiens, UniProt P10415)
T1 construct: purchased Novus NBP2-34889
Assay: Binding evaluation of mixture library compounds to Bcl-2 using AS-MS (affinity selection mass spectrometry)
Settings: for ASMS ratio (%) n = 1: replicate n = 1; for ASMS ratio (%) n = 1 / ASMS ratio (%) n = 2: ASMS Ratio(%)=(A−C)/B×100; for ASMS ratio (%) n = 2: replicate n = 2
Summary of the method: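 Readout is ASMS Ratio (%), (A−C)/B×100, from reversed-phase LC/MS of SEC-passed extracts, with protein-free unfiltered standard (B) and protein-free SEC blank (C). Recombinant human Bcl-2 at 20 μM final met ~1200 pooled compounds at […] each for 1 h, 23° C., dark, in Tris-HCl pH 7.4 buffer.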

[1] = AS-MS, mixture of 1200 compounds, Bcl-2
[2] = AS-MS on the mixture of 1200 library compounds

T1 sequence (P10415 whole entry): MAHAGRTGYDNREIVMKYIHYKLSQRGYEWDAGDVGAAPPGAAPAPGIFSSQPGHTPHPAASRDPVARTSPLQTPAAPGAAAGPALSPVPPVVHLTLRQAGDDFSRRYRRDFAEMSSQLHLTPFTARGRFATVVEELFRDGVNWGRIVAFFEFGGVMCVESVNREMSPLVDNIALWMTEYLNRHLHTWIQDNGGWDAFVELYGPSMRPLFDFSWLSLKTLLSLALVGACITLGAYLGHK

Compound: CCOc1cncc(-c2cc(CN3CCN(c4ccc(C(=O)N(CC)CC)nn4)CC3)cc(OC(C)C)c2)c1 [B4J084-01, 6-[4-[[3-(5-Ethoxypyridin-3-yl)-5-propan-2-yloxyphenyl]methyl]piperazin-1-yl]-N,N-diethylpyridazine-3-carboxamide]
ASMS ratio (%) n = 1 (AS-MS, mixture library, Bcl-2): 0.0% | ASMS ratio (%) n = 2 (AS-MS, mixture library, Bcl-2): −0.6%

Compound: 4-[4-[[2-(3-Ethoxyphenyl)phenyl]methyl]piperazin-1-yl]-N-propylbenzamide [B1M040-01]
ASMS ratio (%) n = 1 [1]: −0.3% | ASMS ratio (%) n = 2 [1]: 0.0%

Compound: CCOc1cncc(-c2ccc(C(=O)N3CCN(c4ccc(C(=O)NCC(F)(F)F)cc4)CC3)cc2F)c1 [B1K028-01, 4-[4-[4-(5-Ethoxypyridin-3-yl)-3-fluorobenzoyl]piperazin-1-yl]-N-(2,2,2-trifluoroethyl)benzamide]
ASMS ratio (%) n = 1 [1]: 0.0% | ASMS ratio (%) n = 2 [1]: 0.0%

Compound: CCOc1cccc(C#Cc2ccccc2C(=O)N2CCN(c3ccc(C(=O)NCC(F)(F)F)nn3)CC2)c1 [B1K007-01, 6-[4-[2-[2-(3-Ethoxyphenyl)ethynyl]benzoyl]piperazin-1-yl]-N-(2,2,2-trifluoroethyl)pyridazine-3-carboxamide]
ASMS ratio (%) n = 1 [1]: 0.0% | ASMS ratio (%) n = 2 [1]: 1.3%

Compound: CCOc1cncc(-c2ccc(C(=O)N3CCN(c4ccc(C(=O)N(C)CC56CC7CC(CC(C7)C5)C6)cc4)CC3)cc2F)c1 [B3A028-01, N-(1-Adamantylmethyl)-4-[4-[4-(5-ethoxypyridin-3-yl)-3-fluorobenzoyl]piperazin-1-yl]-N-methylbenzamide]
ASMS ratio (%) n = 1 [2]: 9.8% | ASMS ratio (%) n = 2 [2]: 1.6%

Compound: CCOc1cccc(-c2ccc(C(=O)N3CCN(c4ccc(C(=O)N(C)CC56CC7CC(CC(C7)C5)C6)nn4)CC3)cc2C)c1 [B3A003-01, N-(1-Adamantylmethyl)-6-[4-[4-(3-ethoxyphenyl)-3-methylbenzoyl]piperazin-1-yl]-N-methylpyridazine-3-carboxamide]
ASMS ratio (%) n = 1 [2]: 6.5% | ASMS ratio (%) n = 2 [2]: 4.9%

Compound: CCOc1cncc(-c2csc(CN3CCN(c4ccc(C(=O)NS(=O)(=O)C(C)(C)C)cc4)CC3)c2)c1 [B2L068-01, N-tert-Butylsulfonyl-4-[4-[[4-(5-ethoxypyridin-3-yl)thiophen-2-yl]methyl]piperazin-1-yl]benzamide]
ASMS ratio (%) (n = 1): 0.0% | ASMS ratio (%) (n = 2): 0.0%

Compound: 6-[4-[[2-(3-Ethoxyphenyl)phenyl]methyl]piperazin-1-yl]-N-propylpyridazine-3-carboxamide [B1M042-01]
ASMS ratio (%) n = 1 [1]: 0.0% | ASMS ratio (%) n = 2 [1]: 0.0%

Compound: CCOc1cncc(-c2csc(CN3CCN(c4ccc(C(=O)NS(C)(=O)=O)cc4)CC3)c2)c1 [B2I068-01]
ASMS ratio (%) (n = 1): 0.0% | ASMS ratio (%) (n = 2): 0.0%

Compound: CCOc1cccc(-c2ccc(C(C)N3CCN(c4ccc(C(=O)NS(=O)(=O)CC56CC7CC(CC(C7)C5)C6)cc4)CC3)c(F)c2)c1 (stereo not shown) [B2A099-01, N-(1-Adamantylmethylsulfonyl)-4-[4-[1-[4-(3-ethoxyphenyl)-2-fluorophenyl]ethyl]piperazin-1-yl]benzamide]
ASMS ratio (%) n = 1 (AS-MS, mixture library, Bcl-2): 0.0% | ASMS ratio (%) n = 2 (AS-MS, mixture library, Bcl-2): 0.0%

Compound: CCOc1cccc(-c2csc(CN3CCN(c4ccc(C(=O)NCC56CC7CC(CC(C7)C5)C6)cc4)CC3)c2)c1 [B1A067-01, N-(1-Adamantylmethyl)-4-[4-[[4-(3-ethoxyphenyl)thiophen-2-yl]methyl]piperazin-1-yl]benzamide]
ASMS ratio (%) n = 1 [1]: 3.6% | ASMS ratio (%) n = 2 [1]: −7.8%

Compound: CCOc1cncc(-c2ccc(C(=O)N3CCN(c4ccc(C(=O)NS(=O)(=O)CCC(F)(F)F)cc4)CC3)c3ccccc23)c1 [B2N036-01, 4-[4-[4-(5-Ethoxypyridin-3-yl)naphthalene-1-carbonyl]piperazin-1-yl]-N-(3,3,3-trifluoropropylsulfonyl)benzamide]
ASMS ratio (%) (n = 1): 0.0% | ASMS ratio (%) (n = 2): 0.4%

Compound: CCOc1cccc(-c2ccc(C(C)N3CCN(c4ccc(C(=O)NCC(F)(F)F)cc4)CC3)cc2)c1 (stereo not shown) [B1K097-01, 4-[4-[1-[4-(3-Ethoxyphenyl)phenyl]ethyl]piperazin-1-yl]-N-(2,2,2-trifluoroethyl)benzamide]
ASMS ratio (%) n = 1 [1]: −2.1% | ASMS ratio (%) n = 2 [1]: −3.1%

Compound: CCOc1cccc(-c2ccc(CN3CCN(c4ccc(C(=O)NCC56CC7CC(CC(C7)C5)C6)cc4)CC3)c3ccccc23)c1 [B1A065-01, N-(1-Adamantylmethyl)-4-[4-[[4-(3-ethoxyphenyl)naphthalen-1-yl]methyl]piperazin-1-yl]benzamide]
ASMS ratio (%) n = 1 [1]: −32.6% | ASMS ratio (%) n = 2 [1]: −10.4%

Compound: CCOc1cncc(-c2csc(C(=O)N3CCN(c4ccc(C(=O)NS(C)(=O)=O)cc4)CC3)c2)c1 [B2I024-01, 4-[4-[4-(5-Ethoxypyridin-3-yl)thiophene-2-carbonyl]piperazin-1-yl]-N-methylsulfonylbenzamide]
ASMS ratio (%) n = 1 (AS-MS, mixture library, Bcl-2): 0.0% | ASMS ratio (%) n = 2 (AS-MS, mixture library, Bcl-2): 0.0%

The remaining lines, values ahead:

ASMS ratio (%) (n = 1): 1.4% | ASMS ratio (%) (n = 2): 0.0%
Compound: CCOc1cccc(-c2cc(CN3CCN(c4ccc(C(=O)NS(C)(=O)=O)nn4)CC3)cc(OC(F)(F)F)c2)c1 [B2I089-01, 6-[4-[[3-(3-Ethoxyphenyl)-5-(trifluoromethoxy)phenyl]methyl]piperazin-1-yl]-N-methylsulfonylpyridazine-3-carboxamide]

ASMS ratio (%) (n = 1): 0.0% | ASMS ratio (%) (n = 2): 0.0%
Compound: CCOc1cccc(C#Cc2ccccc2CN2CCN(c3ccc(C(=O)NS(=O)(=O)C(C)(C)C)nn3)CC2)c1 [B2L095-01, N-tert-Butylsulfonyl-6-[4-[[2-[2-(3-ethoxyphenyl)ethynyl]phenyl]methyl]piperazin-1-yl]pyridazine-3-carboxamide]

ASMS ratio (%) (n = 1): 13.0% | ASMS ratio (%) (n = 2): 0.0%
Compound: CCOc1cccc(-c2cnn(-c3cc(C(=O)N4CCN(c5ccc(C(=O)NS(=O)(=O)c6ccc(NCCSc7ccccc7)c(C(F)(F)F)c6)nn5)CC4)cc(C(F)(F)F)c3)c2)c1 [B2R021-01, 6-[4-[3-[4-(3-Ethoxyphenyl)pyrazol-1-yl]-5-(trifluoromethyl)benzoyl]piperazin-1-yl]-N-[4-(2-phenylsulfanylethylamino)-3-(trifluoromethyl)phenyl]sulfonylpyridazine-3-carboxamide]

ASMS ratio (%) (n = 1): 8.6% | ASMS ratio (%) (n = 2): 0.0%
Compound: CCOc1cccc(-c2ccc(CN3CCN(c4ccc(C(=O)NS(=O)(=O)c5ccc(NCCSc6ccccc6)c(C(F)(F)F)c5)nn4)CC3)c(CC)c2)c1 [B2R075-01, 6-[4-[[4-(3-Ethoxyphenyl)-2-ethylphenyl]methyl]piperazin-1-yl]-N-[4-(2-phenylsulfanylethylamino)-3-(trifluoromethyl)phenyl]sulfonylpyridazine-3-carboxamide]

ASMS ratio (%) n = 1 [2]: 2.0% | ASMS ratio (%) n = 2 [2]: 3.7%
Compound: CCOc1cccc(-c2ccc(CN3CCN(c4ccc(C(=O)Nc5ccc(OC)cc5)nn4)CC3)cc2C)c1 [B1O073-01, 6-[4-[[4-(3-Ethoxyphenyl)-3-methylphenyl]methyl]piperazin-1-yl]-N-(4-methoxyphenyl)pyridazine-3-carboxamide]

ASMS ratio (%) (n = 1): 0.0% | ASMS ratio (%) (n = 2): −1.0%
Compound: CCOc1cccc(C#Cc2ccccc2C(=O)N2CCN(c3ccc(C(=O)NS(=O)(=O)C(C)(C)C)nn3)CC2)c1 [B2L007-01, N-tert-Butylsulfonyl-6-[4-[2-[2-(3-ethoxyphenyl)ethynyl]benzoyl]piperazin-1-yl]pyridazine-3-carboxamide]

ASMS ratio (%) (n = 1): 17.7% | ASMS ratio (%) (n = 2): −1.3%
Compound: CCOc1cccc(-c2ccccc2CCC(=O)N2CCN(c3ccc(C(=O)NS(=O)(=O)c4ccc(NCCSc5ccccc5)c(C(F)(F)F)c4)nn3)CC2)c1 [B2R011-01, 6-[4-[3-[2-(3-Ethoxyphenyl)phenyl]propanoyl]piperazin-1-yl]-N-[4-(2-phenylsulfanylethylamino)-3-(trifluoromethyl)phenyl]sulfonylpyridazine-3-carboxamide]

ASMS ratio (%) (n = 1): 44.0% | ASMS ratio (%) (n = 2): 39.5%
Compound: CCOc1cccc(-c2ccc(C(=O)N3CCN(c4ccc(C(=O)NS(=O)(=O)c5ccc(NCCSc6ccccc6)c(C(F)(F)F)c5)nn4)CC3)cc2F)c1 [B2R005-01, 6-[4-[4-(3-ethoxyphenyl)-3-fluorobenzoyl]piperazin-1-yl]-N-[4-(2-phenylsulfanylethylamino)-3-(trifluoromethyl)phenyl]sulfonylpyridazine-3-carboxamide]

ASMS ratio (%) n = 1 [2]: 7.5% | ASMS ratio (%) n = 2 [2]: 0.8%
Compound: CCOc1cccc(-c2ccc(CN3CCN(c4ccc(C(=O)Nc5ccc(OC)cc5)cc4)CC3)c3ccccc23)c1 [B1O065-01, 4-[4-[[4-(3-Ethoxyphenyl)naphthalen-1-yl]methyl]piperazin-1-yl]-N-(4-methoxyphenyl)benzamide]

ASMS ratio (%) (n = 1): 0.0% | ASMS ratio (%) (n = 2): 0.0%
Compound: CCOc1cncc(-c2ccccc2CCC(=O)N2CCN(c3ccc(C(=O)NS(=O)(=O)CCC(F)(F)F)nn3)CC2)c1 [B2N012-01, 6-[4-[3-[2-(5-Ethoxypyridin-3-yl)phenyl]propanoyl]piperazin-1-yl]-N-(3,3,3-trifluoropropylsulfonyl)pyridazine-3-carboxamide]

ASMS ratio (%) n = 1 (AS-MS, mixture library, Bcl-2): −1.4% | ASMS ratio (%) n = 2 (AS-MS, mixture library, Bcl-2): 0.3%
Compound: CCOc1cncc(-c2ccc(CN3CCN(c4ccc(C(=O)N(CC)CC)nn4)CC3)c3ccccc23)c1 [B4J092-01, 6-[4-[[4-(5-Ethoxypyridin-3-yl)naphthalen-1-yl]methyl]piperazin-1-yl]-N,N-diethylpyridazine-3-carboxamide]
